Entries after “also recorded” stand apart in the source; their conditions may differ.

Assay [1] has as its system E. coli. The assay is described as follows: CFU count over a six hour incubation. Particulars: at 1 and 2 hrs; confounded by bacterial aggregation. It counts as cell-based.
The subject of assay [2] is P. aeruginosa (PAO1 mutant). The assay is described as follows: Radial diffusion assay. It counts as cell-based.
In assay [3] the test system is LDL. Nature of the assay: TBARS assay of copper-induced oxidation of LDL. It counts as biochemical, human. The following applies: for I.C.50 (half-maximal point) for inhibition of copper-induced oxidation of LDL / Concentration of complete inhibition of LDL oxidation (to basal levels) / IC50: 10 μM Cu2+, TBARS; for I.C.50 (half-maximal point) for inhibition of copper-induced oxidation of LDL: 4 hours; for IC50: read-out: I.C.50 for inhibition of copper-induced oxidation of LDL; for TBARS LDL Malondialdehyde: mean ± S.E.M., n=3; for Concentration required to provide the same level of antioxidant protection: LDL, level of 500 μg/ml of rat serum. As for the experimental part:
Substrates for lipid oxidation included mixtures of natural and synthetic glycerophospholipids that are found in pulmonary surfactant and human LDL. The surfactant lipid mix, composed of egg phosphatidylcholine, dipalmitoylphosphatidylcholine, cholesterol and 1-oleoyl-2-linoleoyl-sn-glycero-3-phosphocholine (1:1:0.15:0.15, w/w, respectively) (Avanti Polar Lipids) in chloroform, was dried to a film under nitrogen. Following hydration in PBS or 0.15 M NaCl for 30 min, multilamellar vesicles were generated by vigorous vortexing for 5 minutes. LDL were isolated from the plasma of normal blood donors by density gradient ultracentrifugation (density=1.019-1.063 g/ml) as previously described in Qin et al., Am. J. Physiol. 274(5 Pt 2): H1836-1840 (1998), and stored in saline-EDTA. Just prior to use, EDTA was removed by dialysis against PBS, and the concentration of LDL was determined by Lowry assay (in milligrams of LDL-associated protein).
(§1) Stock solutions of 10 mM CuSO4 were freshly prepared daily. Reaction mixtures containing 1 mg/mi surfactant lipids or 150 μg/ml LDL were incubated with 10 μM CuSO4 for 24 hours or 4 hours, respectively, in the presence of putative oxidation inhibitors or controls at 37° C. in a shaking water bath in accordance with the method of Gelvan et al., Biochim. Biophys. Acta 1035(3):353-360 (1990). Control reactions which included LDL only, 10 μM CuSO4 or protein controls of bovine serum albumin (BSA), rat IgG, recombinant MBP, rat serum and human complement C1q were performed concurrently with experimental samples. Thiobarbituric acid-reactive substances (TBARS) were measured using a method adapted from Gelvan et al., Biochim. Biophys. Acta 1035(3):353-360 (1990). Samples and 0-10 μM […] standards were developed by addition of a solution composed of 0.375% thiobarbituric acid, 15% trichloroacetic acid, and 0.25N HCl at a volume ratio of 1:2, sample: developer. Following incubation at 95° C. for 30 minutes and centrifugation at 14,000 rpm for 15 minutes, an aliquot was read at 540 nm in a spectrophotometer. For continuous assessment of lipid oxidation, the accumulation of conjugated dienes during LDL oxidation was monitored spectrophotometrically in accordance with the method of Esterbauer et al., Free Rad. Med. Biol. 13, 341-390 (1992). Mixtures of 150 μg/ml LDL, 10 μM copper, and various amounts of surfactant proteins or control proteins were placed in quartz cuvettes and allowed to oxidize at room temperature over 335 minutes. Conjugated diene formation was assessed by measuring absorbance at 234 nm in a spectrophotometer.
The data are set forth graphically in FIG. 3. Various concentrations of recombinant wild type SP-A (circle), mutant SP-A containing a deletion of the collagen-like domain (square) and mutant SP-A containing only the neck and C-lectin domain (CLD) (triangle) were incubated with LDL in the presence of 10 μM Cu^2+, and lipid peroxidation was quantified by TBARS assay. Data are means, n=3-4.

In assay [4] the test system is LDL. Nature of the assay: Continuous spectrophotometric monitoring of conjugated diene formation during copper-induced LDL oxidation. It counts as biochemical, human. The following applies: for Effect of addition during the propagation phase of oxidation: 10 μg/ml SP-A at 95, 175 or 195 minutes, 1 μg/ml SP-D at 95, 125 or 155 minutes; for Effect on accumulation of conjugated dienes when included at zero time: SP-A 1.0-10 μg/ml, SP-D 0.01-1 μg/ml; for Concentration of complete inhibition of oxidation (conjugated diene formation): added at zero time, 10 μM copper, room temperature, absorbance 234 nm. How it is done: as §1
The temporal relationship between the addition of SP-A or SP-D and the inhibition of LDL oxidation was determined spectrophotometrically by continuously monitoring conjugated diene accumulation associated with exposure to copper, in accordance with the method of Esterbauer et al., Free Rad. Med. Biol. 13:341-390 (1992). The assay is based on the oxidation dependent rearrangement of 1,4 pentadienyl double bonds of LDL lipids to 1,3-butadienyl double bonds, which absorb in the ultraviolet range. In the presence of 10 μM copper at room temperature, LDL particles resist oxidation for up to 100 minutes as endogenous antioxidants such as atocopherol are consumed. At that point, the rate of oxidation increases in proportion to the concentration of initiating radicals, reaching a plateau when all unsaturated fatty acids are consumed.
According to FIG. 2, conjugated diene formation during copper-induced LDL oxidation was monitored spectrophotometrically by measuring absorbance at 234 nm.

Take “SP-A: Native surfactant protein A isolated from the alveolar wash of silica-pretreated rats”: the “Decrease in number of CFUs” value in assay [1] was 90%. For the same molecule, the “Growth of P. aeruginosa (PAO1 mutant)” value in assay [2] is on record as “inhibited the growth”. Moreover, in assay [3], the “I.C.50 (half-maximal point) for inhibition of copper-induced oxidation of LDL” value amounted to 4.75 µg/mL, the “Concentration of complete inhibition of LDL oxidation (to basal levels)” value came to 10 µg/mL, the IC50 amounted to 7.9 nM and the “Concentration required to provide the same level of antioxidant protection” value worked out at 2.5 µg/mL. For the same molecule, in assay [3] (LDL + Cu2+ + 10 μg/ml protein), the “TBARS LDL Malondialdehyde” value turned out to be 0.0 ± 0.0 µM. For the same molecule, in assay [4], the “Effect of addition during the propagation phase of oxidation” value is “arrested lipid oxidation almost immediately; also recorded: conjugated diene formation was completely arrested at the point of addition”, the “Effect on accumulation of conjugated dienes when included at zero time” value was “blocked the accumulation of conjugated dienes in a dose-dependent manner” and the “Concentration of complete inhibition of oxidation (conjugated diene formation)” value was 10 µg/mL.

B1: SP-D: Native surfactant protein D from rat alveolar wash; mouse SP-D was used interchangeably with rat SP-D (protein)
chain: AEMKSLSQRSVPNTCTLVMCSPTENGLPGRDGRDGREGPRGEKGDPGLPGPMGLSGLQGPTGPVGPKGENGSAGEPGPKGERGLSGPPGLPGIPGPAGKEGPSGKQGNIGPQGKPGPKGEAGPKGEVGAPGMQGSTGAKGSTGPKGERGAPGVQGAPGNAGAAGPAGPAGPQGAPGSRGPPGLKGDRGVPGDRGIKGESGLPDSAALRQQMEALKGKLQRLEVAFSHYQKAALFPDGRSVGDKIFRTADSEKPFEDAQEMCKQAGGQLASPRSATENAAIQQLITAHNKAAFLSMTDVGTEGKFTYPTGEPLVYSNWAPGEPNNNGGAENCVEIFTNGQWNDKACGEQRLVICEF
For B1, in assay [3], the “I.C.50 (half-maximal point) for inhibition of copper-induced oxidation of LDL” value is 0.14 µg/mL, the “Concentration of complete inhibition of LDL oxidation (to basal levels)” value was 1 µg/mL, the IC50 was found to be 0.3 nM and the “Concentration required to provide the same level of antioxidant protection” value stood at 0.05 µg/mL. For the same molecule, the “TBARS LDL Malondialdehyde” value in assay [3] (LDL + Cu2+ + 1 μg/ml protein) was 0.0 ± 0.0 µM. Besides, in assay [4], the “Effect of addition during the propagation phase of oxidation” value is “arrested lipid oxidation almost immediately; also recorded: conjugated diene formation was completely arrested at the point of addition”, the “Effect on accumulation of conjugated dienes when included at zero time” value is recorded as “blocked the accumulation of conjugated dienes in a dose-dependent manner” and the “Concentration of complete inhibition of oxidation (conjugated diene formation)” value came to 0.5 µg/mL.

(Values after US7273847B2, “Peptides with antioxidant and antimicrobial properties” (priority 2000, dated 2007).)
